Data: patent US20260242395A1, “AMINOHETEROARYL KINASE INHIBITORS” (ALLORION THERAPEUTICS INC, priority 2022, published 2026)

Columns and labels:
Assay type in all cases: biochemical
CDK6/CyclinD3 = molecular target: T1, CDK6/CyclinD3 (Homo sapiens, UniProt Q00534); experiment: CDK6/CyclinD3 kinase inhibitory activity (Caliper mobility shift); settings: enzyme 15 nM, ATP 800 μM, 28° C. 30 min; read-out: CDK6/Cyclin D3 IC50
T1 construct: purchased Carna 04-107
Method in brief: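 Compound preincubated 10 min at room temperature with CDK6/CyclinD3 (15 nM final) in HEPES pH 7.5/MgCl2/DTT buffer; reaction with 5-FAM peptide (3000 nM) and ATP 800 μM, 30 min at 28°C, stopped with EDTA. Substrate/product separated by microfluidic mobility shift; % conversion converted to % inhibition, IC50 from dose-response curves.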

CDK2/CyclinE1 = molecular target: T2, CDK2/CyclinE1 (Homo sapiens, UniProt P24941); experiment: CDK2/CyclinE1 kinase inhibitory activity (Caliper mobility shift); settings: enzyme 3 nM, ATP 77 μM, 28° C. 30 min; read-out: CDK2/Cyclin E1 IC50
T2 construct: purchased Carna 04-165
Experimental: CDK2/CyclinE1 kinase inhibitory activity (IC50): 5 μl of various dilutions of test compounds in 1×kinase buffer (50 mM HEPES pH 7.5, 10 mM MgCl2, 2 mM DTT and […] Brij-35) were mixed with 10 μL of CDK2/CyclinE1 (Carna, 04-165 #, final concentration 3 nM in 1×Kinase buffer) in 384 plates and incubated at room temperature for 10 min. To initiate each reaction, 10 μL of peptide solution containing fluorescently-labeled-peptide 18(5-FAM-QSPKKG-CONH2) (GL, 114202 #, final concentration 3000 nM) and ATP (final concentration 77 μM) in 1×Kinase buffer was added to each of the wells containing test compound and CDK2/CyclinE1 mixture. The reaction was then allowed to proceed at 28° C. for 30 min and terminated by the addition of 25 μL stop buffer (100 mM HEPES pH 7.5, 50 mM EDTA, 0.2% Coating Reagent #3 (Perkin Elmer, 760050 #) and 0.015% Brij-35).
Following the kinase reaction, Caliper EZ reader II (Downstream voltages: −500V, Upstream voltages: −2250V, Base pressure −0.5 PSI, Screen pressure −1.2 PSI) was used to separate the phosphorylated (product) and the unphosphorylated (substrate) fluorescently-labeled peptide 18 based on their different mobility. Both substrate and product were measured and the ratio of these values were used to generate % conversion by Caliper EZ reader II. These conversion values were then transformed into % inhibition of kinase activity using the formula: % Inhibition=[(MA−X)/(MA−MI)]×100% where MA=conversion value of DMSO only controls, MI=conversion value of no enzyme controls and X=conversion value at any given compound dose. IC50 values were then calculated by plotting dose-response curves and then using the XLfit application in Excel software.

CDK4/CyclinD1 = molecular target: T3, CDK4/CyclinD1 (Homo sapiens, UniProt P11802); experiment: CDK4/CyclinD1 kinase inhibitory activity (Caliper mobility shift); settings: enzyme 20 nM, ATP 672 uM, 28° C. 30 min; read-out: CDK4/Cyclin D1 IC50
T3 construct: purchased ProQinase 0142-0143-1
T3 sequence (P11802 whole entry): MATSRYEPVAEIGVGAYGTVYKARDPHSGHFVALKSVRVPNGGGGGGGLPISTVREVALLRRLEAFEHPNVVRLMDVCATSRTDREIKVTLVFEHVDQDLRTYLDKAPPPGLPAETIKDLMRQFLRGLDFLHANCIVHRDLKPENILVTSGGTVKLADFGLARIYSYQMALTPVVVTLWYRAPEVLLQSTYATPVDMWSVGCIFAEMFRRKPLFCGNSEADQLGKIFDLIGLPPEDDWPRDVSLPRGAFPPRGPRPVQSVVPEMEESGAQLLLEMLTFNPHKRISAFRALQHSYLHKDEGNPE
T3 sequence (P24385 whole entry partner): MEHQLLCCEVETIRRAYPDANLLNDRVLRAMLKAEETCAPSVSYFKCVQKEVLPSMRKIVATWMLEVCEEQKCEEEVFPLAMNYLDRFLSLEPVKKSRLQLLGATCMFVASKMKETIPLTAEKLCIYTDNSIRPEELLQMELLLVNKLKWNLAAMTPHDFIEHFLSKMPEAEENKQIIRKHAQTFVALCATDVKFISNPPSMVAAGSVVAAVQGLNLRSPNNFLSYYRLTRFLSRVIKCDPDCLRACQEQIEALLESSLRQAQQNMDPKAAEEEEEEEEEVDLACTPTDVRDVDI
Method in brief: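 Recombinant CDK4/Cyclin D1 (20 nM final) preincubated 10 min at room temperature with compound in HEPES pH 7.5 buffer with MgCl2, DTT and Triton X-100. Reaction started with 3000 nM FAM-labelled peptide and 672 uM ATP, run 30 min at 28° C, stopped with EDTA. Mobility-shift % conversion gave % inhibition, and IC50 came from dose-response fits.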

T1 sequence (Q00534 whole entry): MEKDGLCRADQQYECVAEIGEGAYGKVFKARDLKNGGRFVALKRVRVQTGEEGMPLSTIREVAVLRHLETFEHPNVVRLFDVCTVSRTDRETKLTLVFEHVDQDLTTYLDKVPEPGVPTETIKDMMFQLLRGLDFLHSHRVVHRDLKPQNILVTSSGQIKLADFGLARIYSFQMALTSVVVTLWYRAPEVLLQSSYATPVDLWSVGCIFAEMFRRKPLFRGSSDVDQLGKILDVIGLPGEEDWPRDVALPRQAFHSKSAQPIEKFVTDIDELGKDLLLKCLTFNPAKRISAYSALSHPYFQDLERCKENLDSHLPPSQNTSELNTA
T1 sequence (P30281 whole entry partner): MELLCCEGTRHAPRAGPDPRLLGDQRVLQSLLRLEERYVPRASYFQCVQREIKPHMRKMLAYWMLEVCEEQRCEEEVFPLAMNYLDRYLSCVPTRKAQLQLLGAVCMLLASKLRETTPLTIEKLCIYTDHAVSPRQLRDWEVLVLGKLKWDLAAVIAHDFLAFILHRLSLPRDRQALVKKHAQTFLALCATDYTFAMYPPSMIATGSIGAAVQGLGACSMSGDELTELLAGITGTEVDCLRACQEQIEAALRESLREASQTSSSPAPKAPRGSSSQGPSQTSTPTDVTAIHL

SMILES: Cc1nc2c(F)cc(-c3nc(N[C@@H]4CCOC[C@H]4O)ncc3F)cc2c2c1CC1(CC1)NC2 [Example 65]
- IC50 (CDK6/CyclinD3): 100 to 1000 nM
- IC50 (CDK2/CyclinE1): 100 to 1000 nM
- IC50 (CDK4/CyclinD1): < 10 nM

SMILES: [2H]c1nc2c(F)cc(-c3nc(N[C@@H]4CCOC[C@H]4O)ncc3C)cc2c2c1CC1(CC1)NC2 [Example 67]
- IC50 (CDK6/CyclinD3): ≥ 1000 nM
- IC50 (CDK2/CyclinE1): ≥ 1000 nM
- IC50 (CDK4/CyclinD1): 10 to 100 nM

SMILES: [2H]c1nc(N[C@@H]2CCOC[C@H]2O)nc(-c2cc(F)c3nc([2H])c4c(c3c2)CNC2(CC2)C4)c1Cl [Example 68]
- IC50 (CDK6/CyclinD3): 10 to 100 nM
- IC50 (CDK2/CyclinE1): 100 to 1000 nM
- IC50 (CDK4/CyclinD1): < 10 nM

SMILES: [2H]c1nc(N[C@@H]2CCOC[C@H]2O)nc(-c2cc(F)c3nc(C)c(C(C)(C)O)cc3c2)c1F [Example 83]
- IC50 (CDK6/CyclinD3): 100 to 1000 nM
- IC50 (CDK2/CyclinE1): 100 to 1000 nM
- IC50 (CDK4/CyclinD1): < 10 nM

SMILES: [2H]c1nc2c(F)cc(-c3nc(N[C@@H]4CCOC[C@H]4O)ncc3F)cc2c(C)c1C(C)(C)O [Example 94]
- IC50 (CDK6/CyclinD3): 10 to 100 nM
- IC50 (CDK2/CyclinE1): 100 to 1000 nM
- IC50 (CDK4/CyclinD1): < 10 nM

SMILES: Cc1nc2c(F)cc(-c3nc(N[C@@H]4CCOC[C@H]4O)ncc3Cl)cc2c2c1CC(C)(C)NC2 [Example 98]
- IC50 (CDK6/CyclinD3): 100 to 1000 nM
- IC50 (CDK2/CyclinE1): 100 to 1000 nM
- IC50 (CDK4/CyclinD1): < 10 nM

SMILES: [2H]c1nc2c(F)cc(-c3nc(N[C@@H]4CCOC[C@H]4O)ncc3Cl)cc2c2c1CC(C)(C)NC2 [Example 100]
- IC50 (CDK6/CyclinD3): 10 to 100 nM
- IC50 (CDK2/CyclinE1): 100 to 1000 nM
- IC50 (CDK4/CyclinD1): < 10 nM

SMILES: [2H]c1nc2c(F)cc(-c3nc(N[C@@H]4CCOC[C@H]4O)ncc3C)cc2c2c1CC(C)(C)NC2 [Example 102]
- IC50 (CDK6/CyclinD3): 100 to 1000 nM
- IC50 (CDK2/CyclinE1): ≥ 1000 nM
- IC50 (CDK4/CyclinD1): < 10 nM

SMILES: CC1(C)Cc2cnc3c(F)cc(-c4ccnc(N[C@@H]5CCOC[C@H]5O)n4)cc3c2CN1 [Example 107]
- IC50 (CDK6/CyclinD3): 100 to 1000 nM
- IC50 (CDK2/CyclinE1): 100 to 1000 nM
- IC50 (CDK4/CyclinD1): < 10 nM
